{"source": "BigSolDB 2.1", "data": [{"smiles": "CCCCCC[n+]1ccn(C)c1.O=[N+]([O-])[O-]", "values": [{"measurement": "solubility (mole fraction)", "setting": "in benzene, 298.15 K", "result": 0.000219}, {"measurement": "solubility (mole fraction)", "setting": "in benzene, 303.15 K", "result": 0.000263}, {"measurement": "solubility (mole fraction)", "setting": "in benzene, 308.15 K", "result": 0.000308}, {"measurement": "solubility (mole fraction)", "setting": "in benzene, 313.15 K", "result": 0.000382}, {"measurement": "solubility (mole fraction)", "setting": "in benzene, 318.15 K", "result": 0.000454}, {"measurement": "solubility (mole fraction)", "setting": "in benzene, 323.15 K", "result": 0.000536}, {"measurement": "solubility (mole fraction)", "setting": "in benzene, 328.15 K", "result": 0.00061}, {"measurement": "solubility (mole fraction)", "setting": "in benzene, 333.15 K", "result": 0.000714}, {"measurement": "solubility (mole fraction)", "setting": "in benzene, 338.15 K", "result": 0.000832}, {"measurement": "solubility (mole fraction)", "setting": "in benzene, 343.15 K", "result": 0.000962}, {"measurement": "solubility (mole fraction)", "setting": "in cyclohexane, 293.15 K", "result": 0.000304}, {"measurement": "solubility (mole fraction)", "setting": "in cyclohexane, 298.15 K", "result": 0.000357}, {"measurement": "solubility (mole fraction)", "setting": "in cyclohexane, 303.15 K", "result": 0.0004}, {"measurement": "solubility (mole fraction)", "setting": "in cyclohexane, 308.15 K", "result": 0.000446}, {"measurement": "solubility (mole fraction)", "setting": "in cyclohexane, 313.15 K", "result": 0.000516}, {"measurement": "solubility (mole fraction)", "setting": "in cyclohexane, 318.15 K", "result": 0.000592}, {"measurement": "solubility (mole fraction)", "setting": "in cyclohexane, 323.15 K", "result": 0.000674}, {"measurement": "solubility (mole fraction)", "setting": "in cyclohexane, 328.15 K", "result": 0.000751}, {"measurement": "solubility (mole fraction)", "setting": "in cyclohexane, 333.15 K", "result": 0.000857}, {"measurement": "solubility (mole fraction)", "setting": "in cyclohexane, 338.15 K", "result": 0.00097}, {"measurement": "solubility (mole fraction)", "setting": "in m-xylene, 298.15 K", "result": 0.00239}, {"measurement": "solubility (mole fraction)", "setting": "in m-xylene, 303.15 K", "result": 0.00271}, {"measurement": "solubility (mole fraction)", "setting": "in m-xylene, 308.15 K", "result": 0.00303}, {"measurement": "solubility (mole fraction)", "setting": "in m-xylene, 313.15 K", "result": 0.00337}, {"measurement": "solubility (mole fraction)", "setting": "in m-xylene, 318.15 K", "result": 0.00376}, {"measurement": "solubility (mole fraction)", "setting": "in m-xylene, 323.15 K", "result": 0.00413}, {"measurement": "solubility (mole fraction)", "setting": "in m-xylene, 328.15 K", "result": 0.00458}, {"measurement": "solubility (mole fraction)", "setting": "in m-xylene, 333.15 K", "result": 0.00505}, {"measurement": "solubility (mole fraction)", "setting": "in m-xylene, 338.15 K", "result": 0.00553}, {"measurement": "solubility (mole fraction)", "setting": "in m-xylene, 343.15 K", "result": 0.00607}, {"measurement": "solubility (mole fraction)", "setting": "in n-heptane, 313.15 K", "result": 0.000268}, {"measurement": "solubility (mole fraction)", "setting": "in n-heptane, 318.15 K", "result": 0.000358}, {"measurement": "solubility (mole fraction)", "setting": "in n-heptane, 323.15 K", "result": 0.00049}, {"measurement": "solubility (mole fraction)", "setting": "in n-heptane, 328.15 K", "result": 0.000629}, {"measurement": "solubility (mole fraction)", "setting": "in n-heptane, 333.15 K", "result": 0.000841}, {"measurement": "solubility (mole fraction)", "setting": "in n-heptane, 338.15 K", "result": 0.00109}, {"measurement": "solubility (mole fraction)", "setting": "in n-heptane, 343.15 K", "result": 0.00142}, {"measurement": "solubility (mole fraction)", "setting": "in n-hexane, 288.15 K", "result": 0.000306}, {"measurement": "solubility (mole fraction)", "setting": "in n-hexane, 293.15 K", "result": 0.000362}, {"measurement": "solubility (mole fraction)", "setting": "in n-hexane, 298.15 K", "result": 0.00042}, {"measurement": "solubility (mole fraction)", "setting": "in n-hexane, 303.15 K", "result": 0.000492}, {"measurement": "solubility (mole fraction)", "setting": "in n-hexane, 308.15 K", "result": 0.000575}, {"measurement": "solubility (mole fraction)", "setting": "in n-hexane, 313.15 K", "result": 0.000693}, {"measurement": "solubility (mole fraction)", "setting": "in n-hexane, 318.15 K", "result": 0.000794}, {"measurement": "solubility (mole fraction)", "setting": "in n-hexane, 323.15 K", "result": 0.000895}, {"measurement": "solubility (mole fraction)", "setting": "in n-hexane, 328.15 K", "result": 0.000995}, {"measurement": "solubility (mole fraction)", "setting": "in n-hexane, 333.15 K", "result": 0.00113}, {"measurement": "solubility (mole fraction)", "setting": "in n-octane, 293.15 K", "result": 0.000203}, {"measurement": "solubility (mole fraction)", "setting": "in n-octane, 298.15 K", "result": 0.000234}, {"measurement": "solubility (mole fraction)", "setting": "in n-octane, 303.15 K", "result": 0.000268}, {"measurement": "solubility (mole fraction)", "setting": "in n-octane, 308.15 K", "result": 0.000299}, {"measurement": "solubility (mole fraction)", "setting": "in n-octane, 313.15 K", "result": 0.000344}, {"measurement": "solubility (mole fraction)", "setting": "in n-octane, 318.15 K", "result": 0.00038}, {"measurement": "solubility (mole fraction)", "setting": "in n-octane, 323.15 K", "result": 0.000421}, {"measurement": "solubility (mole fraction)", "setting": "in n-octane, 328.15 K", "result": 0.000458}, {"measurement": "solubility (mole fraction)", "setting": "in n-octane, 333.15 K", "result": 0.000518}, {"measurement": "solubility (mole fraction)", "setting": "in n-octane, 338.15 K", "result": 0.000568}, {"measurement": "solubility (mole fraction)", "setting": "in n-octane, 343.15 K", "result": 0.000631}, {"measurement": "solubility (mole fraction)", "setting": "in n-pentane, 278.15 K", "result": 0.000359}, {"measurement": "solubility (mole fraction)", "setting": "in n-pentane, 283.15 K", "result": 0.000397}, {"measurement": "solubility (mole fraction)", "setting": "in n-pentane, 288.15 K", "result": 0.000442}, {"measurement": "solubility (mole fraction)", "setting": "in n-pentane, 293.15 K", "result": 0.000484}, {"measurement": "solubility (mole fraction)", "setting": "in n-pentane, 298.15 K", "result": 0.000534}, {"measurement": "solubility (mole fraction)", "setting": "in n-pentane, 303.15 K", "result": 0.000578}, {"measurement": "solubility (mole fraction)", "setting": "in o-xylene, 298.15 K", "result": 0.00133}, {"measurement": "solubility (mole fraction)", "setting": "in o-xylene, 303.15 K", "result": 0.00145}, {"measurement": "solubility (mole fraction)", "setting": "in o-xylene, 308.15 K", "result": 0.0016}, {"measurement": "solubility (mole fraction)", "setting": "in o-xylene, 313.15 K", "result": 0.00173}, {"measurement": "solubility (mole fraction)", "setting": "in o-xylene, 318.15 K", "result": 0.00187}, {"measurement": "solubility (mole fraction)", "setting": "in o-xylene, 323.15 K", "result": 0.00198}, {"measurement": "solubility (mole fraction)", "setting": "in o-xylene, 328.15 K", "result": 0.00213}, {"measurement": "solubility (mole fraction)", "setting": "in o-xylene, 333.15 K", "result": 0.00227}, {"measurement": "solubility (mole fraction)", "setting": "in o-xylene, 338.15 K", "result": 0.0024}, {"measurement": "solubility (mole fraction)", "setting": "in o-xylene, 343.15 K", "result": 0.00253}, {"measurement": "solubility (mole fraction)", "setting": "in p-xylene, 298.15 K", "result": 0.000795}, {"measurement": "solubility (mole fraction)", "setting": "in p-xylene, 303.15 K", "result": 0.000896}, {"measurement": "solubility (mole fraction)", "setting": "in p-xylene, 308.15 K", "result": 0.00102}, {"measurement": "solubility (mole fraction)", "setting": "in p-xylene, 313.15 K", "result": 0.00114}, {"measurement": "solubility (mole fraction)", "setting": "in p-xylene, 318.15 K", "result": 0.00128}, {"measurement": "solubility (mole fraction)", "setting": "in p-xylene, 323.15 K", "result": 0.00141}, {"measurement": "solubility (mole fraction)", "setting": "in p-xylene, 328.15 K", "result": 0.00155}, {"measurement": "solubility (mole fraction)", "setting": "in p-xylene, 333.15 K", "result": 0.00169}, {"measurement": "solubility (mole fraction)", "setting": "in p-xylene, 338.15 K", "result": 0.00182}, {"measurement": "solubility (mole fraction)", "setting": "in p-xylene, 343.15 K", "result": 0.00199}, {"measurement": "solubility (mole fraction)", "setting": "in toluene, 298.15 K", "result": 0.000278}, {"measurement": "solubility (mole fraction)", "setting": "in toluene, 303.15 K", "result": 0.000334}, {"measurement": "solubility (mole fraction)", "setting": "in toluene, 308.15 K", "result": 0.00039}, {"measurement": "solubility (mole fraction)", "setting": "in toluene, 313.15 K", "result": 0.000482}, {"measurement": "solubility (mole fraction)", "setting": "in toluene, 318.15 K", "result": 0.000585}, {"measurement": "solubility (mole fraction)", "setting": "in toluene, 323.15 K", "result": 0.000686}, {"measurement": "solubility (mole fraction)", "setting": "in toluene, 328.15 K", "result": 0.000776}, {"measurement": "solubility (mole fraction)", "setting": "in toluene, 333.15 K", "result": 0.000904}, {"measurement": "solubility (mole fraction)", "setting": "in toluene, 338.15 K", "result": 0.00106}, {"measurement": "solubility (mole fraction)", "setting": "in toluene, 343.15 K", "result": 0.00123}]}]}
